Laboratory results taken from ChEMBL document CHEMBL1201862, “PubChem BioAssay data set” (2004).
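Protocol summary: plate cells (96-well), add compound at 5 concentrations, incubate 48 h, interpolate endpoints linearly. Here, GI50 denotes the concentration required for 50% inhibition of growth.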 Active and inactive are the calls of the source. Rule as the data show it: active = GI50 up to about 1.1 µM and inactive = higher.

What was measured:
Test in all cases: inhibition of tumour cell growth, NCI panel, 48 h
786-0 = tested on: 786-0
CAKI-1 = tested on: CAKI-1
DU-145 = tested on: DU-145
HCT-15 = tested on: HCT-15
HL-60 = tested on: HL-60
HOP-92 = tested on: HOP-92
LOX IMVI = tested on: LOX IMVI
NCI-H226 = tested on: NCI-H226
NCI-H522 = tested on: NCI-H522
OVCAR-4 = tested on: OVCAR-4
OVCAR-8 = tested on: OVCAR-8
PC-3 = tested on: PC-3
SF-295 = tested on: SF-295
SF-539 = tested on: SF-539
SK-MEL-28 = tested on: SK-MEL-28
SK-OV-3 = tested on: SK-OV-3
UO-31 = tested on: UO-31
RPMI-8226 = tested on: RPMI-8226
SK-MEL-5 = tested on: SK-MEL-5
SR = tested on: SR

Compound	GI50 (786-0)	GI50 (CAKI-1)	GI50 (DU-145)	GI50 (HCT-15) [µM]	GI50 (HL-60)	GI50 (HOP-92)	GI50 (LOX IMVI)	GI50 (NCI-H226)	GI50 (NCI-H522)	GI50 (OVCAR-4)	GI50 (OVCAR-8)	GI50 (PC-3)	GI50 (SF-295)	GI50 (SF-539)	GI50 (SK-MEL-28)	GI50 (SK-OV-3)	GI50 (UO-31)	GI50 (RPMI-8226)	GI50 (SK-MEL-5)	GI50 (SR)
Sc1nnc(COc2ccc(Cl)cc2)n1-c1ccccc1	> 100 µM (inactive)	17.5 µM (inactive)	> 100 µM (inactive)	> 100	> 100 µM (inactive)	> 100 µM (inactive)	49.3 µM (inactive)	> 100 µM (inactive)	5.4 µM (inactive)	> 100 µM (inactive)	> 100 µM (inactive)	> 100 µM (inactive)	> 100 µM (inactive)	> 100 µM (inactive)	> 100 µM (inactive)	> 100 µM (inactive)	61.2 µM (inactive)	–	–	–
COc1ccccc1N=C(S)Nc1ccccn1	56.5 µM (inactive)	> 100 µM (inactive)	–	> 100	> 100 µM (inactive)	–	> 100 µM (inactive)	> 100 µM (inactive)	43.4 µM (inactive)	> 100 µM (inactive)	99.8 µM (inactive)	> 100 µM (inactive)	66.2 µM (inactive)	67.9 µM (inactive)	> 100 µM (inactive)	> 100 µM (inactive)	> 100 µM (inactive)	> 100 µM (inactive)	> 100 µM (inactive)	> 100 µM (inactive)
O=C1CC(c2ccccc2)n2c(nc3ccccc32)N1 (centres undefined)	74.8 µM (inactive)	35.3 µM (inactive)	–	46.8	16.8 µM (inactive)	17.9 µM (inactive)	39.4 µM (inactive)	> 100 µM (inactive)	29.9 µM (inactive)	> 100 µM (inactive)	> 100 µM (inactive)	> 100 µM (inactive)	> 100 µM (inactive)	> 100 µM (inactive)	–	> 100 µM (inactive)	> 100 µM (inactive)	27 µM (inactive)	20.5 µM (inactive)	36.2 µM (inactive)
COc1cc2c(cc1OC)-c1cc3ccccc3c(=O)n1CCC2	6.97 µM (inactive)	7.85 µM (inactive)	10.7 µM (inactive)	2.07	2.58 µM (inactive)	15.4 µM (inactive)	2.66 µM (inactive)	12.6 µM (inactive)	9.25 µM (inactive)	24.6 µM (inactive)	9.35 µM (inactive)	8.51 µM (inactive)	11.1 µM (inactive)	2.94 µM (inactive)	17.9 µM (inactive)	7.31 µM (inactive)	13 µM (inactive)	7.91 µM (inactive)	11.4 µM (inactive)	–
Oc1ncnc2c1nnn2CCCn1nnc2c(O)ncnc21	> 100 µM (inactive)	> 100 µM (inactive)	–	> 100	> 100 µM (inactive)	> 100 µM (inactive)	> 100 µM (inactive)	> 100 µM (inactive)	> 100 µM (inactive)	> 100 µM (inactive)	> 100 µM (inactive)	–	> 100 µM (inactive)	> 100 µM (inactive)	> 100 µM (inactive)	> 100 µM (inactive)	> 100 µM (inactive)	> 100 µM (inactive)	> 100 µM (inactive)	> 100 µM (inactive)
Cc1cc(C2(c3cc(C)c(O)c4ncccc34)OC(=O)c3ccccc32)c2cccnc2c1O	0.0178 µM (active)	0.00953 µM (active)	0.0659 µM (active)	< 0.001	0.0247 µM (active)	0.252 µM (active)	0.00601 µM (active)	0.01 µM (active)	0.01 µM (active)	0.067 µM (active)	0.00615 µM (active)	0.265 µM (active)	0.0299 µM (active)	0.0376 µM (active)	> 10 µM (inactive)	4.52 µM (inactive)	0.00574 µM (active)	0.012 µM (active)	0.0231 µM (active)	–
O=C(O/N=C1/CCC/C1=C\c1ccccc1)c1ccc(Cl)cc1	51.8 µM (inactive)	> 52.1 µM (inactive)	–	> 100	> 56.1 µM (inactive)	64.3 µM (inactive)	> 100 µM (inactive)	> 95.7 µM (inactive)	> 58.2 µM (inactive)	25.8 µM (inactive)	> 71.6 µM (inactive)	–	42 µM (inactive)	25.2 µM (inactive)	> 100 µM (inactive)	> 70.3 µM (inactive)	58.9 µM (inactive)	> 65.9 µM (inactive)	> 100 µM (inactive)	> 82.4 µM (inactive)
CC1CC(Br)C(=O)O1 (centres undefined)	–	> 100 µM (inactive)	> 100 µM (inactive)	> 100	> 100 µM (inactive)	> 100 µM (inactive)	> 100 µM (inactive)	–	> 100 µM (inactive)	> 100 µM (inactive)	> 100 µM (inactive)	> 100 µM (inactive)	> 100 µM (inactive)	> 100 µM (inactive)	> 100 µM (inactive)	> 100 µM (inactive)	> 100 µM (inactive)	38.6 µM (inactive)	> 100 µM (inactive)	–
O=C1Nc2ccc(Br)cc2/C1=N/S(=O)(=O)O	25.4 µM (inactive)	35.6 µM (inactive)	57.1 µM (inactive)	21.9	12.9 µM (inactive)	> 100 µM (inactive)	10 µM (inactive)	28.4 µM (inactive)	31.3 µM (inactive)	19 µM (inactive)	24.4 µM (inactive)	13.3 µM (inactive)	33.7 µM (inactive)	–	30.9 µM (inactive)	79.8 µM (inactive)	35 µM (inactive)	14.1 µM (inactive)	16.1 µM (inactive)	–
Cc1cc(-c2ccccc2)nc(Nc2cc3ccccc3[nH]2)n1	> 100 µM (inactive)	> 100 µM (inactive)	–	> 100	> 100 µM (inactive)	22.2 µM (inactive)	> 100 µM (inactive)	> 100 µM (inactive)	> 100 µM (inactive)	> 100 µM (inactive)	> 100 µM (inactive)	–	> 100 µM (inactive)	> 100 µM (inactive)	> 100 µM (inactive)	> 100 µM (inactive)	> 100 µM (inactive)	> 100 µM (inactive)	> 100 µM (inactive)	> 100 µM (inactive)
C=C1c2c(n(S(=O)(=O)c3ccccc3)c3ccccc23)[C@@]2(C(=O)OC)CC3C=CC2N1C3	> 100 µM (inactive)	> 100 µM (inactive)	> 100 µM (inactive)	> 100	8.09 µM (inactive)	> 100 µM (inactive)	> 100 µM (inactive)	> 100 µM (inactive)	> 100 µM (inactive)	> 100 µM (inactive)	> 100 µM (inactive)	> 100 µM (inactive)	> 100 µM (inactive)	> 100 µM (inactive)	> 100 µM (inactive)	> 100 µM (inactive)	–	41.3 µM (inactive)	–	–
CC1=NNC(=O)C1C1CC(c2c[nH]c3ccccc23)=NNC1=O (centres undefined)	> 100 µM (inactive)	> 100 µM (inactive)	> 100 µM (inactive)	> 100	> 100 µM (inactive)	> 100 µM (inactive)	–	> 100 µM (inactive)	> 100 µM (inactive)	–	> 100 µM (inactive)	> 100 µM (inactive)	> 100 µM (inactive)	> 100 µM (inactive)	> 100 µM (inactive)	> 100 µM (inactive)	> 100 µM (inactive)	> 100 µM (inactive)	> 100 µM (inactive)	–
COc1ccc2nc(-c3ccc(OC(=O)N(C)C)cc3)cn2c1	91.6 µM (inactive)	> 100 µM (inactive)	–	–	> 100 µM (inactive)	> 100 µM (inactive)	82.8 µM (inactive)	> 100 µM (inactive)	36 µM (inactive)	> 100 µM (inactive)	> 100 µM (inactive)	> 100 µM (inactive)	85.5 µM (inactive)	–	> 100 µM (inactive)	> 100 µM (inactive)	–	–	> 100 µM (inactive)	38.9 µM (inactive)
CCOC(=O)N(CC)c1c(C(F)(F)F)cc(-c2ccccc2)[nH]c1=O	64.3 µM (inactive)	> 100 µM (inactive)	72.3 µM (inactive)	40.6	13.6 µM (inactive)	50.7 µM (inactive)	68.4 µM (inactive)	> 100 µM (inactive)	–	30.8 µM (inactive)	49.4 µM (inactive)	46.5 µM (inactive)	33.4 µM (inactive)	–	70.6 µM (inactive)	92 µM (inactive)	56.1 µM (inactive)	14.5 µM (inactive)	41.7 µM (inactive)	–
CCCCSC(=CC(=O)c1cccc(C(=O)C=C(SCCCC)SCCCC)n1)SCCCC	> 100 µM (inactive)	> 100 µM (inactive)	–	> 100	> 100 µM (inactive)	> 100 µM (inactive)	> 100 µM (inactive)	> 100 µM (inactive)	> 100 µM (inactive)	> 100 µM (inactive)	> 100 µM (inactive)	–	> 100 µM (inactive)	> 100 µM (inactive)	> 100 µM (inactive)	> 100 µM (inactive)	> 100 µM (inactive)	> 100 µM (inactive)	> 100 µM (inactive)	> 100 µM (inactive)
CC1C2(C)OC(=N)C(C#N)(C(c3cccc([N+](=O)[O-])c3)O2)C1(C#N)C#N (centres undefined)	17.4 µM (inactive)	12.1 µM (inactive)	28.4 µM (inactive)	–	13.8 µM (inactive)	13.6 µM (inactive)	16.9 µM (inactive)	> 100 µM (inactive)	–	–	29.6 µM (inactive)	30.9 µM (inactive)	84.7 µM (inactive)	18.9 µM (inactive)	17.7 µM (inactive)	> 100 µM (inactive)	35.6 µM (inactive)	–	8 µM (inactive)	–
